Values joined by “and” are separate entries in the source; they are usually repeats but may differ in a detail not shown here. Equal entries are not always repeated. Inconclusive results and toxic doses are left out. The calls were made as follows: active = survival T/C of 150% or more; inactive = T/C below 125% in these data. Peptide text beside a SMILES is read from it. * marks the point of attachment. Boc = CC(C)(C)OC(=O)*
Tested on: P388 leukemia ip, CD2F1 mice, survival T/C
Assay: NCI In Vivo Anticancer Drug Screen. Data for tumor model P388 Leukemia (intraperitoneal) in CD2F1 (CDF1) mice
Settings: endpoint: median survival time, higher = longer survival
Summary of the method: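 Mice carrying the transplanted tumor received test compound or vehicle. Survival was recorded in each group, and the value is the treated-group measurement divided by that of the vehicle-treated control group.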

[1] = dose: 50.0 mg/kg/injection, schedule: Q01DX005 (ip), vehicle: Klucel (hydroxypropylcellulose) (HPC)
[2] = dose: 12.5 mg/kg/injection, schedule: Q01DX005 (ip), vehicle: Klucel (hydroxypropylcellulose) (HPC)
[3] = dose: 25.0 mg/kg/injection, schedule: Q01DX005 (ip), vehicle: Klucel (hydroxypropylcellulose) (HPC)
[4] = dose: 100.0 mg/kg/injection, schedule: Q01DX009 (ip), vehicle: saline with Tween-80

Measured: T/C

COc1cc(Br)c(C(=O)Nc2ccccc2)cc1OC
inactive: dose: 25.0 mg/kg/injection, schedule: Q01DX009 (ip), vehicle: other 97 % of control | dose: 50.0 mg/kg/injection, schedule: Q01DX009 (ip), vehicle: other 97 % of control | dose: 100.0 mg/kg/injection, schedule: Q01DX009 (ip), vehicle: other 91 % of control | dose: 200.0 mg/kg/injection, schedule: Q01DX009 (ip), vehicle: other 97 % of control | dose: 400.0 mg/kg/injection, schedule: Q01DX009 (ip), vehicle: other 97 % of control

COc1ccc(C(=O)/C=C/c2ccc(OCc3ccccc3)cc2)c(OC)c1
inactive: dose: 6.25 mg/kg/injection, schedule: Q01DX009 (ip), vehicle: saline with Tween-80 99 % of control | dose: 12.5 mg/kg/injection, schedule: Q01DX009 (ip), vehicle: saline with Tween-80 93 % of control | dose: 25.0 mg/kg/injection, schedule: Q01DX009 (ip), vehicle: saline with Tween-80 91 % of control

COC1(OC)C=NNc2ncnn21
inactive: dose: 60.0 mg/kg/injection, schedule: Q01DX005 (ip), vehicle: saline 103 % of control | dose: 120.0 mg/kg/injection, schedule: Q01DX005 (ip), vehicle: saline 104 % of control | dose: 240.0 mg/kg/injection, schedule: Q01DX005 (ip), vehicle: saline 105 % of control

CCCCN(CC(O)CNc1cc(OC)cc2cccnc12)C(C)CC (configuration not stated)
inactive: dose: 6.25 mg/kg/injection, schedule: Q01DX005 (ip), vehicle: saline with Tween-80 95 % of control | dose: 12.5 mg/kg/injection, schedule: Q01DX005 (ip), vehicle: saline with Tween-80 91 % of control | dose: 25.0 mg/kg/injection, schedule: Q01DX005 (ip), vehicle: saline with Tween-80 100 % of control | dose: 25.0 mg/kg/injection, schedule: Q01DX005 (ip), vehicle: saline 92 % of control

CSCCC(NC(=O)OC(C)(C)C)C(=O)NC(CCSC)C(=O)NC(C)C(=O)O (stereo not drawn) (Boc-Met-Met-Ala-OH; configuration not given here)
inactive: [1] 98 % of control | dose: 100.0 mg/kg/injection, schedule: Q01DX005 (ip), vehicle: Klucel (hydroxypropylcellulose) (HPC) 102 % of control | dose: 200.0 mg/kg/injection, schedule: Q01DX005 (ip), vehicle: Klucel (hydroxypropylcellulose) (HPC) 102 % of control

CCOc1ccc(C(/C(Cl)=N/O)C(Cl)(Cl)Cl)cc1 (configuration not stated)
inactive: [2] 96 % of control | [3] 91 % of control | [1] 100 % of control

O=C1CC2(CCCCC2)C(=O)N1c1cc([N+](=O)[O-])ccn1
inactive: dose: 12.5 mg/kg/injection, schedule: Q01DX009 (ip), vehicle: Klucel (hydroxypropylcellulose) (HPC) 100 % of control | dose: 25.0 mg/kg/injection, schedule: Q01DX009 (ip), vehicle: Klucel (hydroxypropylcellulose) (HPC) 101 % of control | dose: 50.0 mg/kg/injection, schedule: Q01DX009 (ip), vehicle: Klucel (hydroxypropylcellulose) (HPC) 100 % of control and 92 % of control

CCCCC1C=CC2C(N1)N2C#N (configuration not stated)
inactive: dose: 6.25 mg/kg/injection, schedule: Q01DX009 (ip), vehicle: saline 102 % of control | dose: 12.5 mg/kg/injection, schedule: Q01DX009 (ip), vehicle: saline 99 % of control | dose: 25.0 mg/kg/injection, schedule: Q01DX009 (ip), vehicle: saline 102 % of control | [4] 86 % of control

c1ccc2c(NCCCNCCCNc3c4ccccc4nc4ccccc34)c3ccccc3nc2c1
inactive: dose: 0.63 mg/kg/injection, schedule: Q01DX009 (ip), vehicle: other 112 % of control | dose: 1.25 mg/kg/injection, schedule: Q01DX009 (ip), vehicle: other 102 % of control and 118 % of control | dose: 2.5 mg/kg/injection, schedule: Q01DX009 (ip), vehicle: other 112 % of control | dose: 5.0 mg/kg/injection, schedule: Q01DX009 (ip), vehicle: other 118 % of control | dose: 10.0 mg/kg/injection, schedule: Q01DX009 (ip), vehicle: other 110 % of control

COc1cc2ccc(CC(N)=O)cc2cc1OC
inactive: [4] 118 % of control | dose: 200.0 mg/kg/injection, schedule: Q01DX009 (ip), vehicle: saline with Tween-80 109 % of control

CC(C)N=Cc1ccccc1O.CC(C)N=Cc1ccccc1O.[Cu]
inactive: dose: 25.0 mg/kg/injection, schedule: Q04DX003 (ip), vehicle: saline with Tween-80 100 % of control | dose: 50.0 mg/kg/injection, schedule: Q04DX003 (ip), vehicle: saline with Tween-80 100 % of control

CCN(CC)c1ccc(C(=N)c2ccc(N(C)C)cc2)cc1
inactive: [2] 99 % of control | [3] 99 % of control | [1] 90 % of control and 92 % of control

O=C1NC(=O)C2NC(O)=C(O)NC2N1 (configuration not stated)
inactive: dose: 12.5 mg/kg/injection, schedule: Q01DX001 (ip), vehicle: saline with Tween-80 102 % of control | dose: 25.0 mg/kg/injection, schedule: Q01DX001 (ip), vehicle: saline with Tween-80 108 % of control

Source: PubChem BioAssay AID330 (DTP/NCI, 2004)
